Source: article PMC7551886, “Antitumour Effects of Astaxanthin and Adonixanthin on Glioblastoma” (Marine Drugs, 2020)

Tests used:
Type in all cases: cell-based, mouse
GL261 cells = assay: BrdU cell proliferation assay; details: GL261, temozolomide group (concentration not printed for this test); control group 60.56 ± 1.40%
Experimental: GL261 cells were seeded onto 96-well plates at a density of 2 × 10^3 cells/well with DMEM supplemented with 10% FBS and then incubated for 24 h, after which the culture medium was changed to DMEM containing 10% FBS. Then, astaxanthin, adonixanthin, or temozolomide (Tokyo Chemical Industry Co., Ltd., Tokyo, Japan) were added to the culture. After 72 h of culture, the culture medium was changed to DMEM containing 10% FBS and treated with BrdU at 10 µM for 3 h. After that, immunocytochemistry was performed according to the protocol of anti-BrdU antibody (abcam, ab6326).

p27 = assay: Immunoblotting, p27 expression in GL261; details: GL261, 300 µM temozolomide, 48 h
Experimental: (§1) GL261 cell was seeded at 2.5 × 10^4 cells per well in 24-well plates with culture medium supplemented with 10% FBS. After 24 h of incubation, the medium was changed to DMEM containing 10% FBS and 0.1%DMSO PBS, 300 μM temozolomide, 10 μM astaxanthin, or 10 μM adonixanthin was added for 6 and 48 h. Cells were lysed in a special buffer (RIPA buffer R0278; Sigma-Aldrich, St. Louis, MO, USA) with a protease inhibitor cocktail (Sigma-Aldrich), phosphatase inhibitor cocktails 2 and 3 (Sigma-Aldrich), and sample buffer (Wako, Osaka, Japan). The protein concentration was determined by comparison with a known concentration of bovine serum albumin using the BCA Protein Assay Kit (Thermo Fisher Scientific). The amount of total protein was 2 μg. Equal amounts of protein in sample buffer containing 10% 2-mercaptoethanol were subjected to sodium dodecyl sulphate polyacrylamide gel electrophoresis (SDS-PAGE) in 5-20% gradient gels (SuperSep Ace; Wako), and the separated proteins were transferred to polyvinylidene difluoride membrane (Immobilon-P; Merck Millipore Corporation, Bedford, MA, USA). After blocking for 30 min with Blocking One-P (Nacalai Tesque), we incubated the membranes with primary antibodies overnight at 4 °C. […] The band intensity was […] an Immuno Star LD (Wako). Band intensity was measured using an LAS-4000 UV mini Luminescent Image Analyzer (Fujifilm, Tokyo Japan) and Multi Gauge Version 3.0 (Fujifilm). The phosphorylation of ERK1/2, Akt, and p38 MAPK was measured by normalizing against total ERK1/2, total Akt, and total p38 MAPK. […]

Bcl-2 = assay: Immunoblotting, Bcl-2 expression in GL261; details: GL261, 300 µM, 48 h
Experimental: as §1

Cn1nnc2c(C(N)=O)ncn2c1=O [temozolomide, reference compound]
BrdU-positive cell rate (GL261 cells): 19.17 ± 1.77%
expression of p27 (p27): significantly reduced
expression of Bcl-2 vs. control (Bcl-2): N.S.
